Test results: patent publication US20240279710A1, “FLUORESCENT PROBES” (TOHOKU TECHNO ARCH CO., LTD., priority 2021, published 2024)

What was measured:
retinal ganglion cells = test: Glutamic acid injury of retinal ganglion cells isolated from iPS cell-derived retinal tissue; format: cell-based, human; settings: glutamic acid 300 μM, probe 5 μM added 1 hour later, imaged 1 hour thereafter; FIG. 24
Description: A glutamic acid injury model that activated a calpain to induce a retinal ganglion cell injury was produced from the iPS cell-derived three-dimensional stereoscopic retinal tissue, and calpain activity with Compound 19 was evaluated by using the model. First, to identify a retinal ganglion cell injury caused by a glutamic acid injury, retinal ganglion cells were isolated from the iPS cell-derived three-dimensional stereoscopic retinal tissue with auto MACS pro (trademark) and CD90 MicroBeads. Glutamic acid (final concentration: 300 μM) was added to the cells to be caused to react therewith for 1 hour. Compound 19 (final concentration: 5 μM) was added thereto 1 hour after the addition of glutamic acid, and images of the state and fluorescence of the cells were taken (RGB and B/W modes) with a fluorescence microscope (ZEISS Axio Vert.A1) 1 hour thereafter.

[1] = tested on: iPS cell-derived three-dimensional stereoscopic retinal tissue; test: Glutamic acid injury model of iPS cell-derived three-dimensional stereoscopic retinal tissue; format: cell-based, human
Description: Next, to confirm a reaction under conditions closer to those of a living organism, the iPS cell-derived three-dimensional stereoscopic retinal tissue on the 60th day of the differentiation induction was left at rest in a 24-well plate containing 1 mL of a reaction medium (obtained by adding CaCl2 (final concentration: 2.4 mM) and HEPES (final concentration: 20 mM) to a HBSS solution) in each well (n=5). The tissue was washed with 1 mL of the reaction medium twice, and glutamic acid was added thereto so that its final concentration became 0 μM, 300 μM, or 1 mM, followed by a reaction for 1 hour. Compound 19 was added to the resultant 1 hour after the addition of glutamic acid so that its final concentration became 0 μM, 0.25 μM, 1.2 μM, or 5.0 μM, and an image of the fluorescence of the mixture was taken with a fluorescence microscope (ZEISS Axio Vert.A1) (a RGB mode (lower stage) and a B/W mode (upper stage)) 1 hour thereafter. In all image-taking operations, an exposure time was fixed to 200 ms. The results of groups in which the final concentrations of glutamic acid are 0 μM, 300 μM, and 1 mM are shown in FIG. 25, FIG. 26, and FIG. 27, respectively. […] In addition, a graphical representation of an average calculated from fluorescence intensities in the images taken in the B/W mode (n=3) is shown in FIG. 28. […] In addition, results obtained by comparing and examining the fluorescence intensities of Compound 19 and Compound 16 are shown in FIG. 29.

[2] = Optical characteristics: absorption and fluorescence spectrum at each pH; format: physicochemical; settings: 10 mM phosphate buffer, pH 2 to 11, 1 μM probe, 1% DMSO, excitation 490 nm; neutral condition
Description: The absorption spectrum and fluorescence spectrum of Compound 19 at each pH were each measured. Specifically, a measurement solution was prepared by adding a solution (0.1 mM) of Compound 19 in DMSO to a 10 mM phosphate buffer at each pH in the pH range of from 2 to 11 so that the final probe concentration became 1 μM, and the final DMSO concentration became 1%. The fluorescence spectrum of the measurement solution was measured at an excitation wavelength of 490 nm.

calpain = test: Rabbit NMDA injury model, ocular fundus imaging; format: in vivo; settings: for staining of nerve cells with HMRG in ocular fundus: 30, 45 and 60 minutes after probe into the eye (Compound 19 18.3 μM 19 μL; Compound 16 20 μM 19 μl or 38 μl)
Description: Black Dutch rabbits were each subjected to general anesthesia with a mixed liquid of ketamine and xylazine. N-Methyl-D-aspartate (NMDA) (12 mM, 50 μL) or PBS was administered into an eye of the rabbit. 9 Hours after that, the rabbit was anesthetized with a mixed liquid of ketamine and xylazine again, and Compound 19 (18.3 μM, 19 μL), Compound 16 (20 μM, 19 μl), or Compound 16 (20 μM, 38 μl) was administered into the eye. Images of an ocular fundus were taken with Mirante (a confocal scanning diode laser ophthalmoscope manufactured by Nidek Co., Ltd.) before the administration of each of the compounds and after the lapse of a predetermined time from the administration.

[3] = rabbits administered NMDA, Compound 19 18.3 μM 19 μL, FIG. 23

For `COCC(=O)N[C@@H](CC(C)C)C(=O)N[C@@H](CCSC)C(=O)Nc1ccc2c(c1)Oc1cc(N)ccc1C21OCc2ccccc21` (some centres unmarked) [Compound 19], the “fluorescence of isolated retinal ganglion cells” value (retinal ganglion cells) was “enhancement of the fluorescence”, the “fluorescence images of retinal tissue” value ([1]; glutamic acid 300 μM or 1 mM, probe 0, 0.25, 1.2 or 5.0 μM, 1 hour, FIG. 26, FIG. 27) was “enhancement of fluorescence expression was observed in proportion to the concentration of Compound 19” and the “fluorescence intensity compared with Compound 16” value ([1]; glutamic acid 1 mM, probe 0.25 μM, 1.2 μM, or 5.0 μM, FIG. 29) was “stronger fluorescence than that of Compound 16”. The “average fluorescence intensity of retinal tissue (B/W mode)” value ([1]; same glutamic acid concentration (0 μM, 300 μM, 1 mM), probe 0 to 5.0 μM, FIG. 28) was “fluorescence was strongly observed in a manner dependent on the concentration of Compound 19”, the “absorption spectrum and fluorescence spectrum at each pH” value [2] was “mainly colorless and nonfluorescent” and the “number of HMRG-positive cells in PBS rabbits compared to NMDA rabbits” value (calpain; Compound 19 (19 μL) and Compound 16 (38 μl), FIG. 23) was “significantly reduced”. For the same compound, the “reactivity in relation to dose, compared with Compound 16” value (calpain; rabbit NMDA injury model, administration into the eye) was “satisfactory reactivity even when used in a dose smaller than that of Compound 16”, the “staining of nerve cells with HMRG in ocular fundus” value (calpain; rabbits administered NMDA (12 mM, 50 μL)) was “many nerve cells were clearly stained with HMRG” and the “number of HMRG-positive cells compared to Compound 16 (19 μl)” value (calpain; [3]) was “significantly increased”. For the same compound, the “number of HMRG-positive cells compared to Compound 16 (38 μl)” value (calpain; [3]) was “tended to increase” and the “staining of nerve cells with HMRG in ocular fundus” value (calpain; rabbits administered PBS) was “substantially no staining of the nerve cells with HMRG”.
